Data: patent publication EP0987023A1, “Transition metal complexes of non steroidal anti-inflammatory drugs” (PANACEA BIOTEC LIMITED, priority 1998, dated 2000)
Where two headings read alike, the source gives them in different places.

Columns and labels:
[1] = collected values of NSAIDs; cited from earlier work
[2] = collected values of NSAIDs; cited from earlier work; remark: listed apart in the source
[3] = tested on: Cyclooxygenase 2/Cyclooxygenase 1; conditions: cited from earlier work
[4] = tested on: Carageenan - induced rat paw edema; test: Carageenan-induced rat paw edema (anti-inflammatory activity); assay type: in vivo; conditions: in words, compared to parent drug
[5] = in words; pre-treatment; Navarro et al. 1994; cited from earlier work
[6] = IC50 (µg/ml) of COX2 divided by IC50 for COX1, values below 1 indicate selectivity for COX2, from Drugs of Today Vol. 32 Suppl. D 1996 p. 5

## CC(=O)Oc1ccccc1C(=O)O [Acetylsalicylic acid]
[1]
  LD50: 1520 mg/kg
  Therapeutic Index: 14
[2]
  ED50: 135.0 mg/kg
[3]; [6]
  Cyclooxygenase 2/Cyclooxygenase 1 ratio: 166

## CC(C(=O)O)c1ccc2c(c1)[nH]c1ccc(Cl)cc12 (stereo not drawn) [Carprofen]
[3]
  Cyclooxygenase 2/Cyclooxygenase 1 ratio: 1

## O=C([O-])Cc1ccccc1Nc1c(Cl)cccc1Cl.O=C([O-])Cc1ccccc1Nc1c(Cl)cccc1Cl.[Zn+2] [Diclofenac-Zinc]
[4]; listed as Diclofenac-Zinc complex
  anti-inflammatory activity: much more than the parent drug
[4]; listed as Zinc-diclofenac complex
  anti-inflammatory activity: more potent anti-inflammatory activity than diclofenac

## O=C(c1ccccc1)c1cccc(NS(=O)(=O)C(F)F)c1 [Diflumidone]
[1]
  LD50: 750 mg/kg
  Therapeutic Index: 20
[2]
  ED50: 38.0 mg/kg

## O=C(O)c1ccccc1Nc1cccc(C(F)(F)F)c1 [Flufenamic acid]
[1]
  LD50: 249 mg/kg
  Therapeutic Index: 17
[2]
  ED50: 14.7 mg/kg

## CC(C(=O)O)c1ccc(-c2ccccc2)c(F)c1 (stereo not drawn) [Flurbiprofen]
[3]
  Cyclooxygenase 2/Cyclooxygenase 1 ratio: 1.3

## CC(C)Cc1ccc(C(C)C(=O)O)cc1 (stereo not drawn) [Ibuprofen]
[1]
  LD50: 923 mg/kg
[2]
  ED50: 13.5 mg/kg

## COc1ccc2c(c1)c(CC(=O)O)c(C)n2C(=O)c1ccc(Cl)cc1 [Indomethacin]
[1]
  LD50: 210 mg/kg
[2]
  ED50: 2.95 mg/kg

## COc1ccc2cc([C@H](C)C(=O)O)ccc2c1 [Naproxen, (+) -2-(6-Methoxy-2-haphthyl) propionic acid]
[2]
  ED50: 2.10 mg/kg

## CS(=O)(=O)Nc1ccc([N+](=O)[O-])cc1Oc1ccccc1 [Nimesulide]
[2]
  ED50: 1.25 mg/kg

## CC(=O)Nc1ccc(O)cc1 [Paracetamol]
[3]; [6]
  Cyclooxygenase 2/Cyclooxygenase 1 ratio: 7.4

## CN1C(C(=O)Nc2ccccn2)=C(O)c2ccccc2S1(=O)=O [Piroxicam]
[3]
  Cyclooxygenase 2/Cyclooxygenase 1 ratio: 250

## O=C([O-])c1ccccc1O.[Na+] [Sodium salicylate]
[3]; [6]
  Cyclooxygenase 2/Cyclooxygenase 1 ratio: 2.8

## CC1=C(CC(=O)O)c2cc(F)ccc2/C1=C\c1ccc([S+](C)[O-])cc1 (stereo not drawn) [Sulindac]
[3]; [6]
  Cyclooxygenase 2/Cyclooxygenase 1 ratio: 100

## Cc1c(Cl)cccc1Nc1ccccc1C(=O)O [Tolfenamic acid]
[3]; [6]
  Cyclooxygenase 2/Cyclooxygenase 1 ratio: 16.7

## Cc1ccc(C(=O)c2ccc(CC(=O)O)n2C)cc1 [Tolmetin]
[3]; [6]
  Cyclooxygenase 2/Cyclooxygenase 1 ratio: 175

## CC(=O)NCCCCCC(=O)[O-].CC(=O)NCCCCCC(=O)[O-].[Zn+2] [Zinc acexamate]
[5]
  overall Severity of lessions induced by NSAIDS: significantly decreased
